Experimental data as given in PMC5697638, “Identification of a Potent Phosphoinositide 3‐Kinase Pan Inhibitor Displaying a Strategic Carboxylic Acid Group and Development of Its Prodrugs” (Chemmedchem, 2017).

Legend:
PI3Ks = assay: PI3K inhibitory activity of copper salts; type: biochemical; settings: up to 10 μM
Experimental: With this procedure in hand, we proceeded with our combinatorial strategy. The azides were selected to introduce both electron‐donating and electron‐withdrawing groups, hydrogen‐bond donors and acceptors, and ionizable functions. They were already present in our database or prepared according to standard procedures. […] Then, the 1,2,3‐triazoles were evaluated for their ability to inhibit PI3K isoforms of class I at a fixed concentration of 1 μM, as shown in Table 1. The synthesized 1,2,3‐triazoles along with their ability to inhibit PI3K isoforms at 1 μM concentration are reported. Possibly, a minute concentration of copper salts might have precipitated with the products and might have been retained in the purified compounds, and so, we also evaluated the PI3K inhibitory activity of these salts.

PC3 cells = assay: PC3 cell proliferation (MTT); type: cell-based; design: key to Cell proliferation: active: Active: able to reduce proliferation to an extent greater than 50 %; inactive: able to reduce proliferation to an extent less than 50 %; settings: PC3 cells, 10 μM of each prodrug
Experimental: The biological activity of each prodrug was tested by analyzing their ability to decrease PC3 proliferation as a rapid test to evaluate the PI3Ks inhibitory activity after hydrolysis in a cell‐based assay. […] The choice of using such a cut‐off was due to the intent to identify rapidly which prodrug could be hydrolyzed in the assay to release the active compound. As expected, a good correlation between rate of hydrolysis and cellular activity was observed, and esters 64–68 and 70–73 were determined to be good candidates for topical use. We decided to focus our attention on ester 64, as its half‐life was a good compromise for a prodrug. The EC50 value of this ester was then evaluated on PC3 cells, and a value of (2.3±0.8) μM was obtained.
Cell proliferation: PC3 cell proliferation was measured with a 3‐(4,5‐dimethyl thiazol‐2‐yl)‐2,5‐diphenyltetrazolium bromide (MTT)‐based colorimetric assay (#11 465 007 001 Roche Diagnostic GmbH, Germany). PC3 cells were seeded in a 96‐well plate at a concentration of 10^4 cells mL^−1. PC3 cells were treated for 72 h with increasing concentrations of 64, and MTT was added. After ON solubilization of the MTT metabolite, formazan, the absorbance (λ=550–600 nm absorbance, with a reference wavelength of 650 nm) of each well was read in a multi‐well reader (Glomax multi detection system, Promega, model number 9301‐010). The percentage of proliferating cells was calculated by relating each absolute value to the control intended as PC3 cells treated with DMSO alone. An IC50 value was then derived by plotting all data on a dose–response curve (Graph Pad software) by using nonlinear regression fit (equation [log agonist] versus response).

[1] = stability in mouse plasma; type: in vitro ADME; settings: 50 μM substrate; for half-life at 50 µM: mouse, mouse plasma, 30 min incubation, 37 °C, read-out: Mouse plasma t 1/2
Experimental: Twelve esters were prepared (see the Experimental Section for their synthesis and the Supporting Information for chromatographic methods) and evaluated in terms of metabolic stability. For this task, a combined approach based on microsomal and plasmatic stability assays was exploited considering the relevance of the plasmatic and hepatic tissues in esterase activity. Microsomal stability of the selected esters was evaluated by monitoring the disappearance of the substrate incubated in rat liver microsomes (RLM) at 50 μM concentration, in the presence of NADPH. In Table 4, the percentage of the remaining substrate, after incubation (t=60 min), with respect to the initial amount is reported. Overall, the compounds underwent a relevant metabolic transformation, and the substrate depletion ranged from 0 (for 76) to 100 % (for 70). This is mainly due to hydrolysis of the ester function, whereas the metabolites arising from the oxidation catalyzed by the NADPH‐dependent monooxygenase system were negligible from a quantitative point of view. Indeed, the main metabolite formed during the incubation of the esters was corresponding carboxyl derivative 37. […] Moreover, whereas CH2‐pyridin‐4‐yl ester 70 was completely metabolized, corresponding benzyl derivative 65 and piperonyl derivative 72 were more hydrolytically stable, and their residual substrates were 53 and 83 %, respectively. The hydrolytic stability of the selected esters was also evaluated by monitoring the depletion of the substrate incubated at a 50 μM concentration in mouse plasma over a period of 30 min. As expected, the plasmatic metabolic fate of the esters was characterized by the formation of 37 as the only metabolite (see Figure S4). The rate constant k [min^−1], derived for the substrate peak area versus time curve (single‐exponential decay equation—GraphPad Prism software, Inc., San Diego, CA (USA); see Figure S5) was used to calculate the in vitro half‐life t 1/2 [min], and the values are reported in Table 4. […]
Stability of PI3K inhibitors in mouse plasma
An aliquot of 460 µL of blank plasma spiked with substrate (50 µM, final concentration, DMSO 5%) was incubated at 37 °C for 30 minutes. Aliquots (70 µL) of the incubation took at 0-2-5-10-20, and 30 minutes were diluted with 140 µL of acetonitrile, homogenized, and centrifuged at 13,000 rpm for five minutes. Supernatants (20 µL) were injected onto HPLC.
(§1) A Shimadzu HPLC system (Shimadzu, Kyoto, Japan), consisting of two LC-10AD Vp module pumps, an SLC-10A Vp system controller, an SIL-10AD Vp autosampler, and a DGU-14-A on-line degasser was used for the analysis. All the chromatographic separations were performed on a Phenomenex Luna C18 5µm (150 x 4.6 mm i.d.) (Phenomenex srl, Castel Bolognese, Italy) as a stationary phase protected by a Luna C18 SecurityGuard (Phenomenex srl). The SPD-M10Avp photodiode array detector was used to detect the analyte at 254 nm. LC Solution 1.24 software was used to process the chromatograms. Aliquots (20 µL) of supernatants obtained from incubations were injected onto the HPLC system and eluted with a mobile phase (flow rate: 1 mL/min) consisting of solvent A- 0.5% aqueous formic acid solution and solvent B- acetonitrile/methanol 80:20.
(§2) The eluants were filtered through a 0.45-µm pore size polyvinylidene difluoride membrane […]
(§3) The following gradients programs were used: […]

[2] = metabolic stability in rat liver microsomes (RLM); type: in vitro ADME; settings: RLM, 50 μM substrate, with NADPH; for Residual microsomal substrate (t=60 min): LC–UV
Experimental: Twelve esters were prepared (see the Experimental Section for their synthesis and the Supporting Information for chromatographic methods) and evaluated in terms of metabolic stability. For this task, a combined approach based on microsomal and plasmatic stability assays was exploited considering the relevance of the plasmatic and hepatic tissues in esterase activity. Microsomal stability of the selected esters was evaluated by monitoring the disappearance of the substrate incubated in rat liver microsomes (RLM) at 50 μM concentration, in the presence of NADPH. In Table 4, the percentage of the remaining substrate, after incubation (t=60 min), with respect to the initial amount is reported. Overall, the compounds underwent a relevant metabolic transformation, and the substrate depletion ranged from 0 (for 76) to 100 % (for 70). This is mainly due to hydrolysis of the ester function, whereas the metabolites arising from the oxidation catalyzed by the NADPH‐dependent monooxygenase system were negligible from a quantitative point of view. Indeed, the main metabolite formed during the incubation of the esters was corresponding carboxyl derivative 37. […] Moreover, whereas CH2‐pyridin‐4‐yl ester 70 was completely metabolized, corresponding benzyl derivative 65 and piperonyl derivative 72 were more hydrolytically stable, and their residual substrates were 53 and 83 %, respectively. The hydrolytic stability of the selected esters was also evaluated by monitoring the depletion of the substrate incubated at a 50 μM concentration in mouse plasma over a period of 30 min. As expected, the plasmatic metabolic fate of the esters was characterized by the formation of 37 as the only metabolite (see Figure S4). The rate constant k [min^−1], derived for the substrate peak area versus time curve (single‐exponential decay equation—GraphPad Prism software, Inc., San Diego, CA (USA); see Figure S5) was used to calculate the in vitro half‐life t 1/2 [min], and the values are reported in Table 4.
Metabolic stability of PI3K inhibitors in RLM fraction
The standard incubation mixture (500 µL final volume), in 1.5 mL Eppendorf tubes, was carried out in a 50 mM TRIS-HCl buffer (pH 7.4) containing 3.3 mM MgCl2, 1.3 mM NADPNa2, 3.3 mM glucose 6-phosphate, 0.4 Units/mL glucose 6-phosphate dehydrogenase (NADPH regenerating system), acetonitrile as cosolvent (1% of final volume) and 50 µM of substrate. After pre-equilibration of the mixture, an appropriate volume of rat microsomal suspension was added to give a final protein concentration of 1 mg/mL. The mixture was shaken for 1 hour at 37°C and the reaction was quenched by diluting the samples with 500 µL of ice-cold acetonitrile. The samples were then centrifuged at 13,000 rpm for 10 min, and the supernatant was directly injected onto the HPLC column for analysis. Control incubations were performed without microsomes. […]
as §1, §2, §3

[3] = tested on: PI3Ks, all of the isoforms; design: method as in PMID 8106507; settings: read-out: IC50 against all of the isoforms; cited from earlier work

Structure (SMILES)	half-life at 50 µM [1] [min]	Residual microsomal substrate (t=60 min) [2] [%]	inhibition of PI3Ks (PI3Ks)	Cell proliferation (PC3 cells)	also measured
CC(=O)[O-].CC(=O)[O-].[Cu+2] [copper(II) acetate]	–	–	Neither copper(II) acetate nor copper(I) iodide displayed significant inhibition of PI3Ks up to 10 μM	–	–
O=c1cc(N2CCOCC2)oc2c(-c3ccccc3)cccc12 [LY294002]	–	–	–	–	IC50 [3]: ~500 nM
[Cu+].[I-] [copper(I) iodide]	–	–	Neither copper(II) acetate nor copper(I) iodide displayed significant inhibition of PI3Ks up to 10 μM	–	–
CC(C)(C)OC(=O)c1cccc(Cn2cc(-c3cccc4c(=O)cc(N5CCOCC5)[nH]c34)nn2)c1 [Compound 69, tert ‐Butyl 3‐{[4‐(2‐morpholino‐4‐oxo‐1,4‐dihydroquinolin‐8‐yl)‐1H‐1,2,3‐triazol‐1‐yl]methyl}benzoate]	–	79	–	inactive	hydrolysis by mouse plasma hydrolases ([1]; 30 min): inert to the mouse plasma hydrolases

Second part, led by results:

half-life at 50 µM [1] [min]	Residual microsomal substrate (t=60 min) [2] [%]	Structure (SMILES)	inhibition of PI3Ks (PI3Ks)	Cell proliferation (PC3 cells)	also measured
4.4	80	CCCCCCCCCCCOC(=O)c1cccc(Cn2cc(-c3cccc4c(=O)cc(N5CCOCC5)[nH]c34)nn2)c1 [Compound 75, Undecyl 3‐{[4‐(2‐morpholino‐4‐oxo‐1,4‐dihydroquinolin‐8‐yl)‐1H‐1,2,3‐triazol‐1‐yl]methyl}benzoate]	–	inactive	–
< 1	0	O=C(OCc1ccncc1)c1cccc(Cn2cc(-c3cccc4c(=O)cc(N5CCOCC5)[nH]c34)nn2)c1 [Compound 70, Pyridin‐4‐ylmethyl 3‐{[4‐(2‐morpholino‐4‐oxo‐1,4‐dihydroquinolin‐8‐yl)‐1H‐1,2,3‐triazol‐1‐yl]methyl}benzoate]	–	active	substrate depletion ([2]; 60 min): 100%
